Entries after “also recorded” stand apart in the source; their conditions may differ. Structures can show the parent of a compound that is named as a salt.
Assay: Wet granulation of anhydrous moxifloxacin hydrochloride, crystal form checked by X-ray powder diffractogram
Assay type: physicochemical
Source text: Using of anhydrous moxifloxacin hydrochloride, of which X-ray powder diffractogram could be seen (FIG. 2), in pharmaceutical formulations provides eligible stability therefore preferred rather than moxifloxacin hydrochloride monohydrate. […] It is not desired and it should be prevented.
A wet granulation method with an organic solvent or mixtures of organic solvents is describe herein in which the organic solvent or mixtures of organic solvents are selected from isopropyl alcohol (IPA), acetone, ethanol, dichloromethane and mixtures thereof. […] It is not desired to be converted and thence If conversion is not desired, then granulation should not be performed with water or water mixtures. Anhydrous moxifloxacin hydrochloride should not be exposed to water in the preparation stage. The organic solvent is selected from isopropyl alcohol (IPA), acetone, ethanol, dichloromethane or mixtures thereof in the wet granulation method so as to obtain non-convertible formulations (respectively FIG. 4, FIG. 5, FIG. 6, FIG. 7).
POVIDONE K-30 (polyvinylpyrrolidone) is added to isopropyl alcohol and mixed until the POVIDONE K-30 (polyvinylpyrrolidone) is completely dissolved (Step 1). Moxifloxacin Hydrochloride and Microcrystalline Cellulose are transferred to a granulator and mixed (Step 2). The granulation solution from step 1 is added to the powder mixtures from step 2 and mixed. Wet granules are taken from the granulator to the oven and dried. The granules are sieved. MANNITOL SD 200 (mannitol) and croscarmellose sodium are transferred to the mixtures in the container and mixed. Magnesium stearate is sieved and added to the mixtures in the container and sieved. The blend is tabletted using appropriate punches according to the specifications.

conversion of anhydrous form to moxifloxacin hydrochloride monohydrate (wet granulation with isopropyl alcohol (FIG. 4)): no conversion
Compound: COc1c(N2C[C@@H]3CCCN[C@@H]3C2)c(F)cc2c(=O)c(C(=O)O)cn(C3CC3)c12 [anhydrous moxifloxacin hydrochloride]
conversion of anhydrous form to moxifloxacin hydrochloride monohydrate (wet granulation with acetone (FIG. 5)): no conversion to moxifloxacin hydrochloride monohydrate
conversion of anhydrous form to moxifloxacin hydrochloride monohydrate (wet granulation with dichloromethane (FIG. 7)): no conversion to moxifloxacin hydrochloride monohydrate
conversion of anhydrous form to moxifloxacin hydrochloride monohydrate (wet granulation with ethanol (FIG. 6)): no conversion to moxifloxacin hydrochloride monohydrate
conversion of anhydrous form to moxifloxacin hydrochloride monohydrate (wet granulation with water as wetting agent (FIG. 3), hydrochloride): instantly converted to moxifloxacin hydrochloride monohydrate; also recorded: conversion from anhydrous moxifloxacin hydrochloride to moxifloxacin hydrochloride monohydrate

Source: patent US8314122B2, “Using of organic solvents in wet granulation of moxifloxacin” (Abdi Ibrahim Ilac Sanayi Ve Ticaret Anonim Sirketi, priority 2008, dated 2012)
